{
  "source": "patent US10421782B2",
  "about": "“Cyclic cationic peptides with antimicrobial activity” (I.C.F. S.R.L., priority 2012, dated 2019)",
  "format_in_all_cases": "cell-based",
  "key": {"[1]": {"tested_on": "Pseudomonas aeruginosa ATCC 27853", "procedure": "(§1) For each bacterial strain, 3-5 morphologically similar colonies were drawn from fresh cultures, inoculated in Brain Hearth Infusion broth liquid medium and incubated at the temperature of 37° C. under shaking at 225 r.p.m. for 3-4 h. Subsequently, the bacterial suspension was centrifuged at 1000 g for 20 min and the thus obtained pellet was resuspended in phosphate buffer 10 mM. Turbidity was measured in a spectrophotometer with absorbance at 600 nm, equivalent in the range 0.08-0.13 to a concentration of about 10^8 CFU/ml. The bacterial suspension was diluted 1:100 in phosphate buffer 10 mM, and within 30 min 50 microliters of such bacterial suspension (10^6 CFU/ml) were inoculated in each well of the microtiter plate, to obtain a final bacterial concentration of about 5×10^5 CFU/ml.\n(§2) Several peptides were tested for their ability to inhibit bacterial growth in liquid culture. Fifty microliters of peptide at a concentration comprised between about 0.2 mM and 50 mM were added in 96-well U-bottom plates containing liquid growth medium and one of the following bacteria: Escherichia coli ATCC 25922, P. aeruginosa ATCC 27853, Stenotrophomonas maltophilia ATCC 13637. After 2 hour incubation at 37° C., bacteria were transferred on a solid medium. As a growth control, bacterial cultures were cultured in the absence of peptides.\n(§3) The bacterial suspension was put in contact for two hours with different concentrations of the peptide at the temperature of 37° C. After incubation, 20 μl were drawn from the wells of each dilution and seeded on solid medium, agar McConkey. The inoculum was evenly distributed on the agarized medium by means of a sterile disposable loop. After incubation for 24 h at the temperature of 37° C., counting of the bacterial colonies (CFU) was performed."}, "[2]": {"tested_on": "Escherichia coli ATCC 25922", "details": "for LD90 E. coli ATCC 25922: 2 h contact at 37° C., CFU count after 24 h", "procedure": "as §1, §2, §3"}, "[3]": {"tested_on": "Stenotrophomonas maltophilia ATCC 13637", "experiment": "Broth-microdilution test and subsequent plating on agar, Gram-negative bacteria", "details": "2 h contact at 37° C., CFU count after 24 h", "procedure": "as §1, §2, §3"}},
  "note": "Several values for one entry are separate records, joined by “and”; a condition that tells them apart may be missing. Equal entries are not always repeated. Where two headings read alike, the source gives them in different places.",
  "data": [
    {"molecule": "CC[C@H](C)[C@@H]1NC(=O)[C@H](CCCCN)NC(=O)[C@H](C)NC(=O)[C@@H](NC(=O)[C@H](CCCCN)NC(=O)[C@@H](N)Cc2c[nH]cn2)CSSC[C@@H](C(=O)N[C@@H](C)C(=O)O)NC(=O)[C@H](Cc2ccc(O)cc2)NC(=O)[C@H](CCCCN)NC(=O)[C@H](C(C)C)NC(=O)[C@H](Cc2c[nH]cn2)NC(=O)[C@H](C(C)C)NC(=O)CNC(=O)[C@H](CCCNC(=N)N)NC(=O)[C@H](Cc2c[nH]c3ccccc23)NC(=O)[C@H](CCCCN)NC1=O", "note": "(relative stereo) [Peptide P2041, HIS*LYS*CYS*ALA*LYS*ILE*LYS*TRP*ARG*GLY*VAL*HIS*VAL*LYS*TYR*CYS*ALA]", "values": [
      {"measurement": "LD90 P. aeruginosa ATCC 27853", "setting": "[1]; 2 h contact at 37° C., CFU count after 24 h", "result": 2.14, "unit": "µM"},
      {"measurement": "MBC P. aeruginosa ATCC 27853", "setting": "[1]; ATCC 27853", "result": 2.08, "unit": "µg/mL"},
      {"measurement": "LD90 E. coli ATCC 25922", "setting": "[2]", "result": 0.83, "unit": "µM"},
      {"measurement": "LD90 E. coli ATCC 25922", "setting": "[2]; listed as 2041", "result": "1.57 μg/ml and 0.83 μM"},
      {"measurement": "MBC E. coli ATCC 25922", "setting": "[2]; ATCC 25922", "result": 3.05, "unit": "µg/mL"},
      {"measurement": "LD90 S. maltophilia ATCC 13637", "setting": "[3]", "result": 2.67, "unit": "µM"}
    ]}
  ]
}
